Drawing on patent US20260138961A1, “MODULATORS OF MITOCHONDRIAL DNA REPLICATION” (Pretzel Therapeutics, Inc., priority 2022, published 2026), this text covers AC50 for 22 compounds.

In one assay the target is T1, wild type human POLγ (POLγA:WT) (Homo sapiens, UniProt P54098).
T1 sequence (P54098 1-1239): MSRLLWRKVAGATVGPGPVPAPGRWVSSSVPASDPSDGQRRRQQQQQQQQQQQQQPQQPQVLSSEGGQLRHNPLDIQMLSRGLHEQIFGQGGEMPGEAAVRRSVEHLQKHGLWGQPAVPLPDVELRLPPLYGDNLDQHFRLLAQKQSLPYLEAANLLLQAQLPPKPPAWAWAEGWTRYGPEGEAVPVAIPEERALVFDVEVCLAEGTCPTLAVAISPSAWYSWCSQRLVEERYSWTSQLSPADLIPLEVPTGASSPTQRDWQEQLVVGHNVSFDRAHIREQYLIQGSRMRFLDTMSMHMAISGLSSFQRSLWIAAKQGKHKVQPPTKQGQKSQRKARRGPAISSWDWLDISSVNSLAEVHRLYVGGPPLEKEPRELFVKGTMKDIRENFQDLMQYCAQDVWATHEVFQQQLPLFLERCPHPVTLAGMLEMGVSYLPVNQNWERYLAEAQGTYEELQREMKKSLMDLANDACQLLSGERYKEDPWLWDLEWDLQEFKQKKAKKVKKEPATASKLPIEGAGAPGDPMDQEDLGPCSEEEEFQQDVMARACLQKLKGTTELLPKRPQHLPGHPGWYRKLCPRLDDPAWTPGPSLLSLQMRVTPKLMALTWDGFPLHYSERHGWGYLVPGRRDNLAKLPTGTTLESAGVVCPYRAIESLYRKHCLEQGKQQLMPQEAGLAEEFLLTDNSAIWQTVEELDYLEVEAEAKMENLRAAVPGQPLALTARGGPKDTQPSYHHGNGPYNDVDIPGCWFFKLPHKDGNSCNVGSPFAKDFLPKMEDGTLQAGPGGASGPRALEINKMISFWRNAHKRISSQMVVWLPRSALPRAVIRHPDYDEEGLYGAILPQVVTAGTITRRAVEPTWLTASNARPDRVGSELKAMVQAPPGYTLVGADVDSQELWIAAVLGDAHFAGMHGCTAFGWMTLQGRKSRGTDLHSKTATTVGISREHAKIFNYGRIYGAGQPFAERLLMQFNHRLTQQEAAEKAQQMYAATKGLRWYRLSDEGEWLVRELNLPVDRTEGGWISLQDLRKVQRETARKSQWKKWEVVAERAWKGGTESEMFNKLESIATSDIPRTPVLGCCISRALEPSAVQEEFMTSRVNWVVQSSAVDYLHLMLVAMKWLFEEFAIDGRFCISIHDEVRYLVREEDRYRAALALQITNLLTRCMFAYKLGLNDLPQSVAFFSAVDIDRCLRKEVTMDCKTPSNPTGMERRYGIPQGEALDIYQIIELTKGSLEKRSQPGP
T1 sequence (Q9UHN1 1-485 partner): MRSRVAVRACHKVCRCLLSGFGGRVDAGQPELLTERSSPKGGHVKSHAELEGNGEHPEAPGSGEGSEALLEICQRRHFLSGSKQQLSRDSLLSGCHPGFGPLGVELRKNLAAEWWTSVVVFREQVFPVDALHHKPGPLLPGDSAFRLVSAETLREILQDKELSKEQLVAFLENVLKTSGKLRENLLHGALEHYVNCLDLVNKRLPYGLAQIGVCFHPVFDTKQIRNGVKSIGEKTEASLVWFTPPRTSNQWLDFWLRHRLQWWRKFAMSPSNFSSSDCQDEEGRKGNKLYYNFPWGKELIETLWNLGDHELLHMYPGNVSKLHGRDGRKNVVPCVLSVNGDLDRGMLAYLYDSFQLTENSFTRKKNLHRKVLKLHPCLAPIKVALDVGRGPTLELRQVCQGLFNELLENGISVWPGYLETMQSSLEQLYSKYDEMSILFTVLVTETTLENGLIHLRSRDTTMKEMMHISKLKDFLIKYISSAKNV
The experiment in a line: DNA polymerization assay, wild type POLγ. Conditions: 0.1 μM dNTP, read-out: WT AC50 (μM) at 0.1 μM. Format: biochemical. On the procedure: DNA Polymerization Assay to Monitor Effects on Human Wildtype POLγ and Four Disease-Causing Mutant Variants of Human POLγ.
The ability of small molecules to stimulate the polymerase activity of POLγ was analyzed in a quantitative fluorescence SYBR Green I assay with fluorescence intensity (FI) readout.
In the presence of dNTPs, wild type human POLγ and mutant derivatives thereof were incubated with single-stranded, circular M13mp18 ssDNA hybridized to a short DNA oligonucleotide that functions as a primer for initiation of DNA synthesis. POLγ and mutant derivatives thereof will extend the primer and use the M13mp18 molecule as a template to synthesize long stretches of double-stranded DNA. SYBR Green I, which is a double-stranded DNA-binding dye, was used to quantify formation of double-stranded DNA in the reaction. When bound to double-stranded DNA, SYBR Green I fluorescence increases by up to 100-fold.
The assay was performed in the 384-well plate format. Upon addition of compounds, changes in double-stranded DNA synthesis activity can be monitored by following effects on fluorescent intensity.
The reactions also contained the accessory POLγB subunit, and the human mitochondrial single-stranded DNA binding protein (mtSSB).
The DNA template mixture used in the assay contained 0.5 nM primed M13 mp18 ssDNA, 400 nM mtSSB, 0.1 mM Tris-HCl (pH 8.0), 0.1 mM dNTP, 10 mM MgCl2, 0.1 mg/mL BSA, 1 mM TCEP solution, and 0.02% Triton X-100. The DNA template mixture for the wild type protein contained either 100 μM dNTP, 1 μM dNTP, or 0.1 μM dNTP, designated in Table 2 as 100 μM, 1 μM, and 0.1 μM, respectfully.
Microplates with compounds (0.1 μL in each well) to be tested in the assay were prepared from 10 mM compound stocks in 100% DMSO, and equal amounts of DMSO without any compound were added to positive and negative control wells.
The protein mixture was dispensed (5 μL into each well) into compound plates and incubated at 37° C. for 15 minutes. After incubation, 5 μL of the DNA template mixture was dispensed into each well. The plates were then incubated at 37° C. for 2 hours.
During incubation, a combined stop buffer and detection reagent solution was prepared. The buffer contained 25 mM EDTA (pH 8.0), 0.02% Triton X-100, and SYBR Green I [Invitrogen] diluted 10,000× (for fluorescent readout). EDTA will stop the enzymatic reaction by chelating magnesium ions.
On to `Cc1cnc(-c2ccc(Cl)c(NS(=O)(=O)c3cc(C)c(Cl)cc3C)c2)s1` [Example 102, 4-chloro-N-(2-chloro-5-(5-methylthiazol-2-yl)phenyl)-2,5-dimethylbenzenesulfonamide], for which the AC50 worked out at 5 µM.

Take `Cc1cnc(-c2cc(NS(=O)(=O)c3cc(C)c(Cl)cc3C)ccc2C)s1` [Example 103, 4-chloro-2,5-dimethyl-N-(4-methyl-3-(5-methylthiazol-2-yl)phenyl)benzenesulfonamide]: the AC50 was 17 µM.

Staying with this assay, now noted: 100 μM dNTP, read-out: WT AC50 (μM) at 100 μM.
For the compound `Cc1cc(S(=O)(=O)Nc2cccc(C(=O)N3C[C@H](C)[C@@H](N)C3)c2)c(C)cc1Cl` [Example 108, N-(3-((3R,4S)-3-amino-4-methylpyrrolidine-1-carbonyl)phenyl)-4-chloro-2,5-dimethylbenzenesulfonamide], the AC50 was determined as 24 µM.

As for `Cc1cc(S(=O)(=O)Nc2cccc(C(=O)N(C)C(C)CO)c2)c(C)cc1Cl` (single isomer, unassigned) [Example 14, 3-((4-chloro-2,5-dimethylphenyl)sulfonamido)-N-(1-hydroxypropan-2-yl)-N-methylbenzamide], the AC50 is greater than 100 µM.

On to `Cc1cc(S(=O)(=O)Nc2nc(-c3ccccc3)no2)c(C)cc1Cl` [Example 143, 4-chloro-2,5-dimethyl-N-(3-phenyl-1,2,4-oxadiazol-5-yl)benzenesulfonamide], for which the AC50 is greater than 10 µM.

As to `Cc1cc(S(=O)(=O)Nc2cccc(C(=O)N(C(C)C)C3COC3)c2)c(C)cc1Cl` [Example 112, 3-((4-chloro-2,5-dimethylphenyl)sulfonamido)-N-isopropyl-N-(oxetan-3-yl)benzamide], the AC50 came to 20 µM.

In the case of `Cc1cc(S(=O)(=O)Nc2cccc(-c3nccn3C)c2)c(C)cc1Cl` [Example 19, 4-chloro-2,5-dimethyl-N-(3-(1-methyl-1H-imidazol-2-yl)phenyl)benzenesulfonamide], the AC50 was 0.8 µM.

In the case of `Cc1cc(S(=O)(=O)Nc2cccc(C(=O)N(C)C)c2)c(C)cc1Cl` [Example 12, 3-((4-chloro-2,5-dimethylphenyl)sulfonamido)-N,N-dimethylbenzamide], the AC50 amounted to 5 µM.

Turning to `Cc1ccc(C)c(S(=O)(=O)Nc2cccc(C(=O)N3CCCCC3)c2)c1` [Example 3, 2,5-dimethyl-N-(3-(piperidine-1-carbonyl)phenyl)benzene sulfonamide], the AC50 was greater than 100 µM.

Turning to `Cc1ccc(S(=O)(=O)Nc2csc(-c3ccccc3)n2)c(C)c1` [Example 123, 2,4-dimethyl-N-(2-phenylthiazol-4-yl)benzenesulfonamide], the AC50 was 3 µM.

With `Cc1cc(S(=O)(=O)Nc2nsc(-c3ccccc3)n2)c(C)cc1Cl` [Example 131, 4-chloro-2,5-dimethyl-N-(5-phenyl-1,2,4-thiadiazol-3-yl)benzenesulfonamide], the AC50 came to 1 µM.

Take `Cc1cc(S(=O)(=O)Nc2cccc(-c3ncc(C(N)=O)s3)c2)c(C)cc1Cl` [Example 92, 2-(3-((4-chloro-2,5-dimethylphenyl)sulfonamido)phenyl) thiazole-5-carboxamide]: the AC50 is greater than 10 µM.

Turning to `Cc1cnc(-c2ccc(Cl)c(NS(=O)(=O)c3cc(C)c(Cl)cc3C)c2)s1` [Example 102, 4-chloro-N-(2-chloro-5-(5-methylthiazol-2-yl)phenyl)-2,5-dimethylbenzenesulfonamide], the AC50 is greater than 10 µM.

As for `Cc1cc(S(=O)(=O)Nc2cccc(-c3ncc(C#N)s3)c2)c(C)cc1Cl` [Example 96, 4-chloro-N-(3-(5-cyanothiazol-2-yl)phenyl)-2,5-dimethylbenzenesulfonamide], the AC50 was greater than 10 µM.

Take `Cc1ccc(C)c(S(=O)(=O)Nc2cccc(C(=O)N[C@@H](C)C3CC3)c2)c1` [Example 8, (S)-N-(1-cyclopropylethyl)-3-((2,5-dimethylphenyl)sulfonamido)benzamide]: the AC50 was 5 µM.

`Cc1ccc(C)c(S(=O)(=O)Nc2csc(-c3ccccc3)n2)c1` [Example 134, 2,5-dimethyl-N-(2-phenylthiazol-4-yl)benzenesulfonamide]: the AC50 was 0.3 µM.

In the case of `Cc1cc(Cl)ccc1S(=O)(=O)Nc1csc(-c2ccccc2)n1` [Example 135, 4-chloro-2-methyl-N-(2-phenylthiazol-4-yl)benzenesulfonamide], the AC50 amounted to 0.6 µM.

For `Cc1cc(S(=O)(=O)Nc2cccc(C(=O)N3CCCOC(C)(C)C3)c2)c(C)cc1Cl` [Example 106, 4-chloro-N-(3-(2,2-dimethyl-1,4-oxazepane-4-carbonyl)phenyl)-2,5-dimethylbenzenesulfonamide], the AC50 worked out at 32 µM.

Turning to `Cc1cc(S(=O)(=O)Nc2cccc(C(=O)N3CCC[C@H]3C)c2)c(C)cc1Cl` [Example 10, (R)-4-chloro-2,5-dimethyl-N-(3-(2-methylpyrrolidine-1-carbonyl)phenyl)benzenesulfonamide], the AC50 is 0.5 µM.

`Cc1cnc(-c2cc(NS(=O)(=O)c3cc(C)c(Cl)cc3C)ccc2C)s1` [Example 103, 4-chloro-2,5-dimethyl-N-(4-methyl-3-(5-methylthiazol-2-yl)phenyl)benzenesulfonamide]: the AC50 amounted to 1 µM.

`Cc1cc(S(=O)(=O)Nc2cccc(C(=O)NCc3ccccc3)c2)c(C)cc1Cl` [Example 11, N-benzyl-3-((4-chloro-2,5-dimethylphenyl)sulfonamido)benzamide]: the AC50 was 29 µM.

On to “(R)-2,5-dimethyl-N-(3-(3-methylmorpholine-4-carbonyl)phenyl)benzenesulfonamide [Example 1]”, for which the AC50 stood at 2 µM.

Regarding `Cc1cc(S(=O)(=O)Nc2cccc(C(=O)N3CCc4cn[nH]c4C3)c2)c(C)cc1Cl` [Example 107, 4-chloro-2,5-dimethyl-N-(3-(4,5,6,7-tetrahydro-1H-pyrazolo[3,4-c]pyridine-6-carbonyl)phenyl)benzenesulfonamide], the AC50 came to 1 µM.

Turning to `Cc1ccc(C)c(S(=O)(=O)Nc2cccc(C(=O)N3CCCC[C@@H]3C)c2)c1` [Example 6, (S)-2,5-dimethyl-N-(3-(2-methylpiperidine-1-carbonyl)phenyl)benzenesulfonamide], the AC50 was determined as 4 µM.
